Source: paper PMC2957699, “Iodothyronine Interactions with the System L1 Amino Acid Exchanger in 3T3-L1 Adipocytes” (Journal of Thyroid Research, 2010)

Experiments:
Format in all cases: cell-based
[1] = target: T1, LAT1 (System L1 catalytic subunit) (Mus musculus, UniProt Q9Z127); test: trans stimulation of [3H]phenylalanine efflux; inhibition of phenylalanine and T3 uptake
T1 construct: gene Slc7a5; endogenous System L1 in 3T3-L1 adipocytes; with SLC3A2 (4F2hc/CD98)

[2] = target: T1, LAT1 (System L1 catalytic subunit); test: inhibition of [3H]phenylalanine uptake ([…] at […]) and of leucine trans stimulated efflux; settings: read-out: % inhibition at 10 μM
[3] = target: T1, LAT1 (System L1 catalytic subunit); test: saturable [3H]phenylalanine uptake (Km) in 3T3-L1 cells
[4] = target: T1, LAT1 (System L1 catalytic subunit); test: inhibition of […] [3H]phenylalanine uptake at […]; settings: read-out: % inhibition at 10 mM

T1 sequence (Q9Z127 whole entry): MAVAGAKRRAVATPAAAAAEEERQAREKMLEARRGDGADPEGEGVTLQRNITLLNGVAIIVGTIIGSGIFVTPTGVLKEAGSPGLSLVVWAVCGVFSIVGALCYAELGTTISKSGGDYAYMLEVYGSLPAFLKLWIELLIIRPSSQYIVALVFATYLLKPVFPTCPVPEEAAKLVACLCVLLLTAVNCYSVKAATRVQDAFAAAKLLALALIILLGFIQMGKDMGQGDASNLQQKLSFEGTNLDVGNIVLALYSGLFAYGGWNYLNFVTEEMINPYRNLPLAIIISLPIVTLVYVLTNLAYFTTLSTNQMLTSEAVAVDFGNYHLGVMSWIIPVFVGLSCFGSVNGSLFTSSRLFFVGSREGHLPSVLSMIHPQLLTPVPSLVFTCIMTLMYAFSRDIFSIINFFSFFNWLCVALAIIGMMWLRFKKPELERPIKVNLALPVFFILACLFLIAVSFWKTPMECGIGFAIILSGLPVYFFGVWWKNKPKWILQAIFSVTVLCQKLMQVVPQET
T1 sequence (P10852 whole entry partner): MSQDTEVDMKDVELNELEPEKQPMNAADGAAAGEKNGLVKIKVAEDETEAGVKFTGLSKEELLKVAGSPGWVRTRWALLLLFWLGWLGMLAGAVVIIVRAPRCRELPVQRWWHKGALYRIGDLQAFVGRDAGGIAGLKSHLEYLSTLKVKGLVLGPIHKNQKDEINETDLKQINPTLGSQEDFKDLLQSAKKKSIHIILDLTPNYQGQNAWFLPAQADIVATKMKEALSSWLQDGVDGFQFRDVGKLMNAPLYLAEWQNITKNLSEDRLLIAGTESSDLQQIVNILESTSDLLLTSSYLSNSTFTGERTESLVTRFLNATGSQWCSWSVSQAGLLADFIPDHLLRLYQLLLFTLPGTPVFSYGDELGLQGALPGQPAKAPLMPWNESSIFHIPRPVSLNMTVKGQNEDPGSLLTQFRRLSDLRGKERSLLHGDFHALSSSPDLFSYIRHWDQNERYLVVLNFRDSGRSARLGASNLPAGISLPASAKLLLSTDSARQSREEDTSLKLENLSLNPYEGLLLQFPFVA

CC(C)C[C@H](N)C(=O)O [leucine] was tested, and the “trans stimulation of [3H]phenylalanine efflux; inhibition of phenylalanine and T” value [1] was “Efflux of pre-loaded L-[^3H]phenylalanine from 3T3-L1 adipocytes was trans stimulated in a concentration-dependent manner by external leucine”.
Molecule N[C@@H](Cc1ccc(Oc2cc(I)c(O)c(I)c2)c(I)c1)C(=O)O [rT3, Reverse L-triiodothyronine] has an inhibition at 10 µM [2] of 57%.
N[C@@H](Cc1ccccc1)C(=O)O [L-phenylalanine] was tested, and the Km [3] was 31 µM.
In the case of NC1(C(=O)O)CC2CCC1C2 (stereo not shown) [BCH, 2-aminobicyclo-(2,2,1)-heptane-2-carboxylic acid], the inhibition at 10000 µM [4] is reported as > 95%.
